# Measurements taken from patent US5143906A, “Kedarcidin antitumor chromophore and pharmaceutical composition containing same” (Bristol-Myers Squibb Company, priority 1991, dated 1992).
# “Also recorded” adds a separate entry of the source.
# What was measured:
# [1] = tested on: human colon adenocarcinoma HCT116 drug sensitive line; experiment: In vitro cytotoxicity assay (XTT), HCT116; assay type: cell-based
# Experimental: (§1) The A2780/DDP cell line is reported to be resistant through enhanced DNA repair mechanisms and elevated GSH/GST levels. Cells were cultured in McCoy's media and 10% fetal bovine serum. When in log phase growth, 4×10^3 cells/well were plated into 96 well microtiter plates and incubated at 37° C. in […] /5% CO2 for 24 hours to allow cell attachment. Compounds were added to the top row of wells, serially diluted (4 fold dilutions) and incubated for an additional 72 hours. The number of viable cells in each well was then quantitated as previously described^2 by adding 0.05 mg/ml final concentration tetrazolium stain (XTT) in the presence of 0.005 mM final concentration phenazine methosulfate. After incubation at room temperature for 3 hours to allow color development, optical density values were measured using a Dynatech MR600 plate reader at […]. IC50 values (drug concentration inhibiting cell growth by 50%) were calculated using linear regression analysis of the optical density readings. Triplicate determinations on separate 96 well plates were done for each drug on each cell line tested.
# [2] = tested on: HCT116/VP35 drug resistant cell line; experiment: In vitro cytotoxicity assay (XTT), HCT116/VP35; assay type: cell-based, human
# Experimental: as §1
# [3] = tested on: HCT116/VM46 drug resistant cell line; experiment: In vitro cytotoxicity assay (XTT), HCT116/VM46; assay type: cell-based, human
# Experimental: as §1
# [4] = tested on: human ovarian carcinoma A2780 drug sensitive cell line; experiment: In vitro cytotoxicity assay (XTT), A2780; assay type: cell-based
# Experimental: as §1
# [5] = tested on: A2780/DDP drug resistant cell line; experiment: In vitro cytotoxicity assay (XTT), A2780/DDP; assay type: cell-based, human
# Experimental: as §1
# [6] = tested on: several human tumor cell lines; experiment: In vitro cytotoxicity assay, several human tumor cell lines (summary); assay type: cell-based
# Source text: as §1, with “The cell lines used to evaluate in vitro cytotoxic potency include the human colon adenocarcinoma HCT116 drug sensitive line, HCT 116/VP35 and HCT116/VM46 daughter drug resistant cell lines that have low Topoisomerase II and elevated P-170 glycoprotein levels^1; respectively, and the human ovarian carcinoma A2780 drug sensitive and the A2780/DDP daughter drug resistant cell line. The A2780/DDP” for “The A2780/DDP”, “density readings. […]” for “density readings. Triplicate determinations on separate 96 well plates were done for each drug on each cell line tested.”
# [7] = tested on: iv implanted P388 leukemia; experiment: Antitumor activity against iv implanted P388 leukemia; assay type: in vivo, murine (CDF1 mice)
# Source text: (§2) The P388 tumor was maintained in ascitic form in DBA/2 mice. Experimental tumor models used CDF^1 mice implanted via the intraperitoneal or intravenous route with 1×10^6 leukemia cells on day 0 and dosed with drugs according to the indicated route and schedule. Mice were weighed on day 0 and on day 5 or 6. Weight loss of 20% or greater was an indicator of drug toxicity. Each dose group consisted of 6 mice with 10 mice in the untreated control group. The dosing schedule was Q1DX1;1. Death checks were performed daily and the median life span of each group determined. […] Experiments were terminated on or about day 30.
# [8] = tested on: P388 murine leukemia; experiment: P388 murine leukemia models, ip and iv implanted (summary); assay type: in vivo, murine (CDF1 mice)
# Source text: as §2
smiles,measurement,setting,value
COc1c(OC(C)C)cc2cc(O)c(C(=O)N[C@@H]3CC(=O)OC[C@@H](O[C@H]4C[C@H](O)[C@H](N(C)C)[C@H](C)O4)/C4=C/C#C[C@@H]5O[C@]56C(=C[C@H](Oc5ccc3nc5Cl)[C@@H]6O[C@H]3C[C@@](C)(O)[C@@H](O)[C@H](C)O3)C#C4)cc2c1OC [Kedarcidin chromophore],IC50,"[1]; HCT116, 72 h, VP-16 values: mean of triplicate determinations from last 6 experiments",0.4 ng/mL
same,fold more potent than VP-16,[1]; VP-16 sensitive cell line (HCT116),1725 fold
same,cross-resistance with VP-16,[2]; HCT116/VP35,not cross-resistant
same,IC50,"[2]; HCT116/VP35, 72 h, VP-16 values: mean of triplicate determinations from last 6 experiments",0.3 ng/mL
same,cross-resistance with VP-16,[3]; HCT116/VM46,not cross-resistant
same,IC50,"[3]; HCT116/VM46, 72 h, VP-16 values: mean of triplicate determinations from last 6 experiments",0.3 ng/mL
same,IC50,"[4]; A2780, 72 h, VP-16 values: mean of triplicate determinations from last 6 experiments",0.2 ng/mL
same,fold more potent than VP-16,[4]; VP-16 sensitive cell line (A2780),285 fold
same,fold less potent on the resistant cell line compared to the sensitive cell line,"[5]; A2780/DDP vs A2780, 4320 min",about 6.6 fold
same,IC50,"[5]; A2780/DDP, 72 h, VP-16 values: mean of triplicate determinations from last 6 experiments",1.3 ng/mL
same,ability to inhibit cell growth,[6]; compared to VP-16,extremely potent
same,antitumor in vitro activity,[6]; several human tumor cell lines,potent antitumor in vitro activity
same,% T/C,"[7]; Exp. 8305, 0.125 mg/kg/dose",186%
same,Av. wgt. change,"[7]; Exp. 8305, 0.125 mg/kg/dose",-0.3 g
same,Med. surv. time,"[7]; Exp. 8305, 0.125 mg/kg/dose",13.0
same,No. of mice alive on d 5,"[7]; Exp. 8305, 0.125 mg/kg/dose",6/6
same,% T/C,"[7]; Exp. 8305, 0.25 mg/kg/dose",214%
same,Av. wgt. change,"[7]; Exp. 8305, 0.25 mg/kg/dose",-0.8 g
same,Med. surv. time,"[7]; Exp. 8305, 0.25 mg/kg/dose",15.0
same,No. of mice alive on d 5,"[7]; Exp. 8305, 0.25 mg/kg/dose",6/6
same,% T/C,"[7]; Exp. 8305, 0.5 mg/kg/dose",107%
same,Av. wgt. change,"[7]; Exp. 8305, 0.5 mg/kg/dose",-2.9 g
same,Med. surv. time,"[7]; Exp. 8305, 0.5 mg/kg/dose",7.5
same,No. of mice alive on d 5,"[7]; Exp. 8305, 0.5 mg/kg/dose",6/6
same,% T/C,"[7]; Exp. 8305, 1 mg/kg/dose",TOX
same,Med. surv. time,"[7]; Exp. 8305, 1 mg/kg/dose",TOX
same,No. of mice alive on d 5,"[7]; Exp. 8305, 1 mg/kg/dose",0/6
same,% T/C,"[7]; Exp. 8305, 2 mg/kg/dose",TOX
same,Med. surv. time,"[7]; Exp. 8305, 2 mg/kg/dose",TOX
same,No. of mice alive on d 5,"[7]; Exp. 8305, 2 mg/kg/dose",0/6
same,% T/C,"[7]; Exp. 8305, 4 mg/kg/dose",TOX
same,Med. surv. time,"[7]; Exp. 8305, 4 mg/kg/dose",TOX
same,No. of mice alive on d 5,"[7]; Exp. 8305, 4 mg/kg/dose",0/6
same,optimal dose,"[7]; Exp. 8305, iv one day after tumor implant",0.25 mg/kg/inj
same,% T/C,"[7]; Exp. 8328, 0.125 mg/kg/dose",186%
same,Av. wgt. change,"[7]; Exp. 8328, 0.125 mg/kg/dose",-2.5 g
same,Med. surv. time,"[7]; Exp. 8328, 0.125 mg/kg/dose",13.0
same,No. of mice alive on d 5,"[7]; Exp. 8328, 0.125 mg/kg/dose",6/6
same,% T/C,"[7]; Exp. 8328, 0.25 mg/kg/dose",100%
same,Av. wgt. change,"[7]; Exp. 8328, 0.25 mg/kg/dose",-2.4 g
same,Med. surv. time,"[7]; Exp. 8328, 0.25 mg/kg/dose",7.0
same,No. of mice alive on d 5,"[7]; Exp. 8328, 0.25 mg/kg/dose",6/6
same,% T/C,"[7]; Exp. 8328, 0.5 mg/kg/dose",TOX
same,Med. surv. time,"[7]; Exp. 8328, 0.5 mg/kg/dose",TOX
same,No. of mice alive on d 5,"[7]; Exp. 8328, 0.5 mg/kg/dose",0/6
same,% T/C,"[7]; Exp. 8328, 1.0 mg/kg/dose",TOX
same,Med. surv. time,"[7]; Exp. 8328, 1.0 mg/kg/dose",TOX
same,No. of mice alive on d 5,"[7]; Exp. 8328, 1.0 mg/kg/dose",0/6
same,optimal dose,"[7]; Exp. 8328, iv, Q1DX1;1",0.125 mg/kg/inj
same,efficacy and potency compared to kedarcidin,[8]; P388 model,"as efficacious as, and slightly more potent than, kedarcidin; also recorded: as active as, and slightly more potent than, kedarcidin"
same,antitumor activity in P388 models,"[8]; ip, ip or iv, iv model",both potent and efficacious; also recorded: significant antitumor activity; also recorded: in vivo antitumor activity
